{"source": "patent US20170071880A1", "about": "“SELEGILINE TRANSDERMAL SYSTEM” (KAT Transdermals LLC, priority 2012, published 2017)", "test": "Solubility of selegiline in pressure sensitive adhesive polymers", "format": "physicochemical", "text": "The invention pertains to the transdermal delivery of selegiline for the treatment of depression, Parkinson's disease and other neurologic conditions. […] Acrylic pressure sensitive adhesives (PSAs) that could be used with the invention include those based on pure acrylate monomers as well as acrylate copolymers and terpolymers using for example as the comonomers vinyl acetate or hydrocarbon copolymers which may also include pacifiers and other pressure sensitive adhesive modifiers. Commercially available acrylate copolymers include those made by Henkel Corporation under the trade names of Duro-Tak 87-900A (DT 87-900A), 87-901A, 87-9301, 87-9088, and 87-4098. […] Of specific interest is the pressure sensitive adhesive DT 87-4098 which is the only copolymer mentioned above that contains vinyl acetate and which has low levels of peel, shear and tack which can then be enhanced by the incorporation of large amounts of plasticizing liquids such as selegiline. Since these polymers are not crosslinked, the resistance of movement of the drug through the patch itself will be very low thus enhancing the permeability through human skin. Thus it is an object of our invention to use non-crosslinked acrylate copolymer PSAs in matrix selegiline patches, especially PSA DT 87-4098, to provide for excellent permeation of selegiline through human skin. Another object of our invention is to use humectant/solubilizers in the matrix patch to provide for stabilization of the patch through absorption and immobilization of the liquids in the patch. For example such humectant/solubilizers include PVP, PVP/VA, hydroxypropylcellulose, hydroxyethylcellulose, hydroxypropylmethylcellulose, methyl cellulose, Sodium carboxymethyl cellulose, colloidal silica, Xantham Gum, and polyacrylic acid. By experiment we determined that the best humectant/solubilizer for matrix patches delivering selegiline is PVP/VA. PVP/VA has the ability to properly disperse/solubilize within the PSA matrix and to provide additional stability to the matrix, absorb the liquid selegiline base and prevent syneresis. In prior art, PVP was specifically excluded from the use in selegiline patches, which in our case, where we use non crosslinked acrylic PSAs, are shown to be very important to the development of a patch of our invention. It is another object of our invention to incorporate in the matrix PSA humectant/solubilizers, and especially PVP/VA, in the amounts of between 3 to 30% on the weight of the PSA, to provide for better syneresis, adhesion to skin and more rapid permeation of the drug through the skin. The ability of the composition of our patch is such that volatile and non-volatile enhancers can be included in the formulations, which are specifically excluded in the prior art Volatile enhancers for the case of our invention are liquids that have a vapor pressure at 20 degrees Centigrade which is higher than 0.2 mm Hg. Volatile enhancers such as Dimethylsulfoxide (DMSO), decylmethylsulfoxide lactates such as ethyl lactate and propyl lactate isobutyl lactate and lauryl lactate can be incorporated in the PSA matrix system of the selegiline patch of our invention. Thus it is another object of our invention to incorporate volatile enhancers in our patch so as to increase the permeation of selegiline through the human skin and reduce the size of the patch. […]"}
{"smiles": "C#CCN(C)[C@H](C)Cc1ccccc1", "note": "[selegiline]", "values": [{"measurement": "solubility of selegiline in PSA", "setting": "in non-crosslinked acrylic copolymer PSA DT 87-4098", "value": 59, "unit": "wt %"}, {"measurement": "solubility of selegiline in PSA", "setting": "in non-crosslinked acrylic copolymer PSA DT 87-9088", "value": 118, "unit": "wt %"}, {"measurement": "solubility of selegiline in PSA", "setting": "in non-crosslinked acrylic copolymer PSA DT 87-9301", "value": 81, "unit": "wt %"}, {"measurement": "solubility of selegiline in PSA", "setting": "in polyisobutylene (PIB) PSA", "value": 8, "unit": "wt %"}, {"measurement": "solubility of selegiline in PSA", "setting": "in silicone PSA", "value": 6, "unit": "wt %"}]}
